Results published in paper PMC9533837 (Antiviral Research, 2003).
In brackets after ≈: the same amount, converted by molar mass. Where two headings read alike, the source gives them in different places.

How the values were obtained:
VAR isolate Minn124 = assay: organism not typed; assay type: cell-based, variola minor; details: Vero, read-out: IC50, VAR isolate Minn124
VAR isolate Rafig Lahore = assay: organism not typed; assay type: cell-based, variola; details: Vero, read-out: IC50, VAR isolate Rafig Lahore
[1] = system: MPX Zaire (V79-1-005-Scab); assay: organism not typed; assay type: cell-based, monkeypox; details: for IC50: LLC-MK2, read-out: IC50 MPX LLC-MK2
[2] = system: orthopoxviruses (VAR-BSH, VAR-YAM, VAR-GAR, MPX, CPX, VAC); assay: organism not typed; assay type: cell-based
VAR isolate Butler = assay: organism not typed; assay type: cell-based, variola minor; details: Vero, read-out: IC50, VAR isolate Butler
VAR isolate Iran 2602 = assay: organism not typed; assay type: cell-based, variola; details: Vero, read-out: IC50, VAR isolate Iran 2602
VAR isolate Eth17 = assay: organism not typed; assay type: cell-based, variola; details: Vero, read-out: IC50, VAR isolate Eth17
VAR isolate Hinden = assay: organism not typed; assay type: cell-based, variola; details: Vero, read-out: IC50, VAR isolate Hinden
VAR isolate 7124 = assay: organism not typed; assay type: cell-based, variola; details: Vero, read-out: IC50, VAR isolate 7124
[3] = system: VAR-YAM (1946 Japan Yamada isolate of VAR major); assay: organism not typed; assay type: cell-based, variola major; details: for IC50: LLC-MK2, read-out: IC50 VAR-YAM LLC-MK2
[4] = system: VAR-GAR (1966 Brazil Garcia isolate of VAR minor); assay: organism not typed; assay type: cell-based, variola minor; details: for IC50: Vero
[5] = system: VAR-GAR (1966 Brazil Garcia isolate of VAR minor); assay: organism not typed; assay type: cell-based, variola minor; details: for IC50: LLC-MK2, read-out: IC50 VAR-GAR LLC-MK2
VAR isolate V77-1605 = assay: organism not typed; assay type: cell-based, variola; details: Vero, read-out: IC50, VAR isolate V77-1605
Vero cells = details: African green monkey
VAR isolate Heidelberg = assay: organism not typed; assay type: cell-based, variola; details: Vero, read-out: IC50, VAR isolate Heidelberg
VAR isolate V72-119 = assay: organism not typed; assay type: cell-based, variola; details: Vero, read-out: IC50, VAR isolate V72-119
VAR isolate V68-59 = assay: organism not typed; assay type: cell-based, variola minor; details: Vero, read-out: IC50, VAR isolate V68-59
CPX Brighton [6] = assay: organism not typed; assay type: cell-based, cowpox; details: for IC50: LLC-MK2, read-out: IC50 CPX LLC-MK2
VAR isolate Higgins = assay: organism not typed; assay type: cell-based, variola; details: Vero, read-out: IC50, VAR isolate Higgins
VAC Copenhagen [7] = assay: microbe, parasite or virus in culture; assay type: cell-based, vaccinia virus; details: for IC50: Orthopoxvirus vaccinia, Vero, read-out: IC50 VAC Vero
[8] = system: MPX Zaire (V79-1-005-Scab); assay: organism not typed; assay type: cell-based, monkeypox; details: for IC50: Vero
[9] = system: VAR-BSH (1975 Bangladesh isolate of VAR major); assay: organism not typed; assay type: cell-based, variola major; details: for IC50: Vero
LLC-MK2 cells = details: rhesus monkey
VAR isolate Harper = assay: organism not typed; assay type: cell-based, variola; details: Vero, read-out: IC50, VAR isolate Harper
CPX = details: cited from earlier work
CPX Brighton [10] = assay: organism not typed; assay type: cell-based, cowpox; details: for IC50: Vero
VAC = details: cited from earlier work
VAR isolate V73-225 = assay: organism not typed; assay type: cell-based, variola; details: Vero, read-out: IC50, VAR isolate V73-225
all VAR isolates tested = assay: organism not typed; assay type: cell-based, variola; details: Vero, read-out: IC50, VAR mean
VAR isolate 102 = assay: organism not typed; assay type: cell-based, variola; details: Vero, read-out: IC50, VAR isolate 102
VAR isolate Somalia = assay: organism not typed; assay type: cell-based, variola; details: Vero, read-out: IC50, VAR isolate Somalia
VAR isolate Horn = assay: organism not typed; assay type: cell-based, variola; details: Vero, read-out: IC50, VAR isolate Horn
[11] = system: VAR-YAM (1946 Japan Yamada isolate of VAR major); assay: organism not typed; assay type: cell-based, variola major; details: for IC50: Vero
VAR isolate Jee = assay: organism not typed; assay type: cell-based, variola; details: Vero, read-out: IC50, VAR isolate Jee
[12] = system: VAR-BSH (1975 Bangladesh isolate of VAR major); assay: organism not typed; assay type: cell-based, variola major; details: for IC50: LLC-MK2, read-out: IC50 VAR-BSH LLC-MK2
VAR isolate V73-175 = assay: organism not typed; assay type: cell-based, variola; details: Vero, read-out: IC50, VAR isolate V73-175
VAC Copenhagen [13] = assay: microbe, parasite or virus in culture; assay type: cell-based, vaccinia virus; details: for IC50: Orthopoxvirus vaccinia, LLC-MK2, read-out: IC50 VAC LLC-MK2
[14] = read-out: IC50, VAR isolate Garcia
[15] = read-out: IC50, VAR isolate Bangladesh
[16] = read-out: IC50, VAR isolate Yamada

Nc1ccn(C[C@@H](CO)OCP(=O)(O)O)c(=O)n1 [Cidofovir, 1-[(S)-3-hydroxy-2-(phosphonomethoxy)-propyl]cytosine]
IC50 (VAR isolate Minn124): 5 µg/mL (≈ 17.9 µM)
IC50 (VAR isolate Rafig Lahore): 12 µg/mL (≈ 43 µM)
Therapeutic index (TI) MPX LLC-MK2 [1]: 27.0
IC50 [1]: 3.7 µg/mL (≈ 13.3 µM)
TI against the panel of viruses [2]: 18.2
IC50 ([2]; read-out: mean IC50 against the panel of viruses): 5.5 ± 0.95 µg/mL (≈ 19.7 µM)
IC50 (VAR isolate Butler): 6 µg/mL (≈ 21.5 µM)
IC50 (VAR isolate Iran 2602): 8 µg/mL (≈ 28.7 µM)
IC50 (VAR isolate Eth17): 11 µg/mL (≈ 39.4 µM)
IC50 (VAR isolate Hinden): 10 µg/mL (≈ 35.8 µM)
IC50 (VAR isolate 7124): 20 µg/mL (≈ 71.6 µM)
Therapeutic index (TI) VAR-YAM LLC-MK2 [3]: 37.0
IC50 [3]: 2.7 µg/mL (≈ 9.67 µM)
Therapeutic index (TI) VAR-GAR Vero [4]: 22.2
IC50 [4, 14]: 7 µg/mL (≈ 25.1 µM)
IC50 ([4]; read-out: IC50 VAR-GAR Vero): 4.5 µg/mL (≈ 16.1 µM)
Therapeutic index (TI) VAR-GAR LLC-MK2 [5]: 40.0
IC50 [5]: 2.5 µg/mL (≈ 8.95 µM)
IC50 (VAR isolate V77-1605): 19 µg/mL (≈ 68.1 µM)
Cytotoxicity TC50 Vero (Vero cells): >100 µg/mL
IC50 (VAR isolate Heidelberg): 15 µg/mL (≈ 53.7 µM)
IC50 (VAR isolate V72-119): 10 µg/mL (≈ 35.8 µM)
IC50 (VAR isolate V68-59): 13 µg/mL (≈ 46.6 µM)
Therapeutic index (TI) CPX LLC-MK2 (CPX Brighton [6]): 83.3
IC50 (CPX Brighton [6]): 1.2 µg/mL (≈ 4.3 µM)
IC50 (VAR isolate Higgins): 14 µg/mL (≈ 50.1 µM)
Therapeutic index (TI) VAC Vero (VAC Copenhagen [7]): 12.3
IC50 (VAC Copenhagen [7]): 8.1 µg/mL (≈ 29 µM)
Therapeutic index (TI) MPX Vero [8]: 14.9
IC50 ([8]; read-out: IC50, MPX): 11 µg/mL (≈ 39.4 µM)
IC50 ([8]; read-out: IC50 MPX Vero): 6.7 µg/mL (≈ 24 µM)
Therapeutic index (TI) VAR-BSH Vero [9]: 10.5
IC50 ([9]; 120 h, read-out: apparent IC50): 10.9 µg/mL (≈ 39 µM)
IC50 [9, 15]: 17 µg/mL (≈ 60.9 µM)
IC50 ([9]; read-out: IC50 VAR-BSH Vero): 9.5 µg/mL (≈ 34 µM)
Cytotoxicity TC50 LLC-MK2 (LLC-MK2 cells): >100 µg/mL
IC50 (VAR isolate Harper): 28 µg/mL (≈ 100 µM)
activity in vivo, CPX mouse model (CPX): active in vivo
Therapeutic index (TI) CPX Vero (CPX Brighton [10]): 13.3
IC50 (CPX Brighton [10]; read-out: IC50, CPX): 13 µg/mL (≈ 46.6 µM)
IC50 (CPX Brighton [10]; read-out: IC50 CPX Vero): 7.5 µg/mL (≈ 26.9 µM)
inhibition of VAC replication in vitro (VAC): inhibit VAC replication in vitro
IC50 (VAR isolate V73-225): 5 µg/mL (≈ 17.9 µM)
IC50 (all VAR isolates tested): 12 ± 1 µg/mL (≈ 43 µM)
IC50 (VAR isolate 102): 23 µg/mL (≈ 82.4 µM)
IC50 (VAR isolate Somalia): 7 µg/mL (≈ 25.1 µM)
IC50 (VAR isolate Horn): 11 µg/mL (≈ 39.4 µM)
Therapeutic index (TI) VAR-YAM Vero [11]: 8.3
IC50 [11, 16]: 13 µg/mL (≈ 46.6 µM)
IC50 ([11]; read-out: IC50 VAR-YAM Vero): 12.1 µg/mL (≈ 43.3 µM)
IC50 (VAR isolate Jee): 10 µg/mL (≈ 35.8 µM)
Therapeutic index (TI) VAR-BSH LLC-MK2 [12]: 31.3
IC50 [12]: 3.2 µg/mL (≈ 11.5 µM)
IC50 (VAR isolate V73-175): 12 µg/mL (≈ 43 µM)
Therapeutic index (TI) VAC LLC-MK2 (VAC Copenhagen [13]): 23.3
IC50 (VAC Copenhagen [13]): 4.3 µg/mL (≈ 15.4 µM)

NC(=O)c1ncn([C@@H]2O[C@H](CO)[C@@H](O)[C@H]2O)n1 [Ribavirin]
IC50 (VAR isolate Minn124): 32 µg/mL (≈ 131 µM)
IC50 (VAR isolate Rafig Lahore): 30 µg/mL (≈ 123 µM)
Therapeutic index (TI) MPX LLC-MK2 [1]: 24.4
IC50 [1]: 4.1 µg/mL (≈ 16.8 µM)
IC50 ([2]; LLC-MK2, read-out: mean IC50 on LLC-MK2 cells): 8 ± 3.4 µg/mL (≈ 32.8 µM)
IC50 ([2]; Vero, read-out: mean IC50 on Vero cells): 31.3 ± 14.1 µg/mL (≈ 128 µM)
IC50 (VAR isolate Butler): 28 µg/mL (≈ 115 µM)
IC50 (VAR isolate Iran 2602): 11 µg/mL (≈ 45 µM)
IC50 (VAR isolate Eth17): 61 µg/mL (≈ 250 µM)
IC50 (VAR isolate Hinden): 33 µg/mL (≈ 135 µM)
IC50 (VAR isolate 7124): 36 µg/mL (≈ 147 µM)
Therapeutic index (TI) VAR-YAM LLC-MK2 [3]: 29.4
IC50 [3]: 3.4 µg/mL (≈ 13.9 µM)
Therapeutic index (TI) VAR-GAR Vero [4]: 5.9
IC50 [4, 14]: 39 µg/mL (≈ 160 µM)
IC50 ([4]; read-out: IC50 VAR-GAR Vero): 17 µg/mL (≈ 69.6 µM)
Therapeutic index (TI) VAR-GAR LLC-MK2 [5]: 27.8
IC50 [5]: 3.6 µg/mL (≈ 14.7 µM)
IC50 (VAR isolate V77-1605): 453 µg/mL (≈ 1850 µM)
Cytotoxicity TC50 Vero (Vero cells): >100 µg/mL
IC50 (VAR isolate Heidelberg): 43 µg/mL (≈ 176 µM)
IC50 (VAR isolate V72-119): 35 µg/mL (≈ 143 µM)
IC50 (VAR isolate V68-59): 41 µg/mL (≈ 168 µM)
Therapeutic index (TI) CPX LLC-MK2 (CPX Brighton [6]): 9.4
IC50 (CPX Brighton [6]): 10.6 µg/mL (≈ 43.4 µM)
IC50 (VAR isolate Higgins): 48 µg/mL (≈ 197 µM)
Therapeutic index (TI) VAC Vero (VAC Copenhagen [7]): 1.0
IC50 (VAC Copenhagen [7]): > 100 µg/mL
Therapeutic index (TI) MPX Vero [8]: 16.9
IC50 ([8]; read-out: IC50, MPX): 11 µg/mL (≈ 45 µM)
IC50 ([8]; read-out: IC50 MPX Vero): 5.9 µg/mL (≈ 24.2 µM)
Therapeutic index (TI) VAR-BSH Vero [9]: 5.4
IC50 [9, 15]: 30 µg/mL (≈ 123 µM)
IC50 ([9]; read-out: IC50 VAR-BSH Vero): 18.4 µg/mL (≈ 75.3 µM)
Cytotoxicity TC50 LLC-MK2 (LLC-MK2 cells): >100 µg/mL
IC50 (VAR isolate Harper): 40 µg/mL (≈ 164 µM)
protection of CPX-infected mice (CPX; mouse, in vivo): can protect CPX-infected mice
Therapeutic index (TI) CPX Vero (CPX Brighton [10]): 3.3
IC50 (CPX Brighton [10]; read-out: IC50, CPX): > 300 µg/mL
IC50 (CPX Brighton [10]; read-out: IC50 CPX Vero): 30.6 µg/mL (≈ 125 µM)
inhibition of VAC replication in vitro (VAC): inhibited VAC replication in vitro
IC50 (VAR isolate V73-225): 26 µg/mL (≈ 106 µM)
IC50 (all VAR isolates tested): 50 ± 8 µg/mL (≈ 205 µM)
IC50 (VAR isolate 102): 110 µg/mL (≈ 450 µM)
IC50 (VAR isolate Somalia): 84 µg/mL (≈ 344 µM)
IC50 (VAR isolate Horn): 28 µg/mL (≈ 115 µM)
Therapeutic index (TI) VAR-YAM Vero [11]: 6.3
IC50 [11, 16]: 40 µg/mL (≈ 164 µM)
IC50 ([11]; read-out: IC50 VAR-YAM Vero): 15.8 µg/mL (≈ 64.7 µM)
IC50 (VAR isolate Jee): 47 µg/mL (≈ 192 µM)
Therapeutic index (TI) VAR-BSH LLC-MK2 [12]: 47.6
IC50 [12]: 2.1 µg/mL (≈ 8.6 µM)
IC50 (VAR isolate V73-175): 17 µg/mL (≈ 69.6 µM)
Therapeutic index (TI) VAC LLC-MK2 (VAC Copenhagen [13]): 4.2
IC50 (VAC Copenhagen [13]): 23.9 µg/mL (≈ 97.9 µM)
